Data on one molecule can be found in patent EP3818828A1 (priority 2019, dated 2021).

The test system of the experiment is damping-off (P. aphanidermatum, P.capsici). In words: In-vivo greenhouse control of damping-off of eggplants. The following applies: Eggplant; sick soil; 0.80 mg/mL (active ingredients). How it is done:
3.88 g of 3-(3',4'-methylenedioxy phenyl)-N-n-propyl acrylamide was weighed and dissolved in 25 g of absolute ethyl alcohol, then 6 g of emulsifier 0203B was added, and mixed uniformly with stirring to get 10% of 3-(3',4'-methylenedioxy phenyl)-N-n-propyl acrylamide EC.
5.61 g of 3-(3',4'-methylenedioxy phenyl)-piperidine acrylate was weighed and dissolved in 25 g of absolute ethyl alcohol, then 6 g of emulsifier 0203B was added, and mixed uniformly with stirring to get 14% of 3-(3',4'-methylenedioxy phenyl)-piperidine acrylate EC.
Sick soil of damping-off (P. aphanidermatum, P.capsici) was collected from the fields of tomatoes, eggplants and peppers in a solar greenhouse, and mixed evenly in equal proportion. Tomatoes (Variety: Song Tian Fen Yang Yang, 100 grains), eggplants (Variety: Lanza No. 2 F1 long eggplant, 100 grains), pepper (Longjiao No. 2 F1, 100 grains) were seeded quantitatively with the sick soil in pots (diameter: 15 cm) in a greenhouse, additionally with sterile vermiculite as the control (each 100 grains for determining the germination rate). […] Mortality of seedlings was investigated after the seedlings had grown 2 true leaves, and the control effect of each treatment on damping-off was calculated. […]

`O=C(/C=C/c1ccc2c(c1)OCO2)N1CCCCC1` [3-(3',4'-methylenedioxyphenyl)-piperidine acrylate]: the “Control Effect” value is recorded as 63.47%.
